# From patent US7037656B2, “Methods and compositions for identifying ligands for nuclear receptors” (priority 2000, dated 2006)
# Legend:
# Test in all cases: Yeast 6x EcRE-lacZ β-galactosidase transactivation assay
# Type in all cases: cell-based
# Cf EcR = target: T1, Cf EcR (Choristoneura fumiferana, UniProt O77240); settings: RH 5992 10 μM, 4 hours, DMSO control 0.201
# T1 construct: human ubiquitin (76 aa) (N, cleaved yes); expressed in transfected cells; host or cells: yeast (Saccharomyces cerevisiae), plasmid YEpCfEcR, CUP1 promoter
# Procedure: (§1) Briefly, yeast cells are cultured in 5 mL of YPD liquid medium overnight at 30° C. The cell culture was diluted 1:20 in YPD media and further grown until cell density reached an O.D of 0.6. at OD600. The cells were pelleted by centrifugation and washed with 10 mL of TE+0.1M lithium acetate. Cells are then resuspended in 10 mL TE+0.1M lithium acetate and incubated at 30° C. for 1 hour. Cells are collected and resuspended in 0.5 mL of TE+ 0.1M lithium acetate. Aliquots of cells (50 μL), were incubated for 15 minutes at 30° C. with 1–2 μg plasmid DNA in the presence of 5 μg of denatured salmon sperm DNA as DNA carrier. In the case of co-transformation, the indicated plasmids were added simultaneously. 50% polyethyleneglycol of molecular weight 4000, diluted in TE, was added to a final concentration of 35%. DMSO was added to the transformation solution simultaneously to a final concentration 3%. The samples were mixed well by vortexing and incubated for an additional 30 minutes at 30° C. The cell mixture is then heated for 15 minutes at 42° C. Cells were then collected and plated onto appropriate yeast selective media. Transformants of 4 plasmids are selected on the complete media without tryptophan, uracil, leucine and histidine.
# (§2) The yeast cells grown overnight in selective liquid media at 30° C. were diluted in prewarmed liquid selective media to 0.1 at OD600 (ODculture). 100 μl of the cell culture was spiked to each well of a.96-well microtiter plate. Ligand (2 μl diluted in DMSO) was added to each well giving a final concentration of DMSO of 2%. As a control, 2 μl of DMSO were also added to additional test wells. The final concentration of the tested compounds in the media is 10 μM. The cells were incubated in the presence of ligand in a shaker at 30° C. After 4 hours of incubation, 100 μl of 2× “Z” Sarcosine-ONPG buffer (120 mM Na2HPO4, 80 mM NaH2PO4, 20 mM KCl, 2 mM MgSO4, 100 mM beta-mercaptoethanol (Sigma), pH 7.0, 0.4% lauroyl sarcosine (Sigma), 4 mg/mL ONPG (Diagnostic Chemicals limited) was added to each well and the plate was further incubated at 37° C. The 2× “Z” Sarcosine-ONPG buffer is freshly prepared or stored at −20° C. prior to use. After incubation at 37° C. for 1 hour. The reaction was stopped by adding 100 μL of quenching solution 0.5 M Na2CO3 and OD405 (ODreaction) and beta-galactosidase activity was measured in a micro plate reader (Biotek) at a wave length of 405–450 nanometers. The effect of copper on enhancement of the transactivation response mediated by the ligands tested was studied by adding CuSO4 to the media to a final concentration of 10 μM.
# (§3) Using the transformation method described above, yeast were co-transformed with a reporter gene as shown in FIG. 2 and the expression vector encoding the full-length Choristoneura fumiferana ecdysone receptor, Cf EcR (FIG. 5A) in the presence or absence of the Cf EcR heterodimer partner, Cf USP (FIG. 6A). Transformed cells were incubated with DMSO alone as a control, or with a proprietary ecdysone receptor ligand (Rohm & Haas RH5992) at final concentration 10 μM for 4 hours. The samples were then assayed for β-galactosidase activity as described above. […] However, as with all systems tested, fruit fly, mosquito and spruce bud worm, co-expression of CfEcR with CfUSP did give rise to constitutive transactivation of reporter gene. […] However, deletion of the A/B domain of the CfUSP abolished this constitutive transactivation of the reporter gene. Thus, in the spruce bud worm system, constitutive transcription is not observed when CfEcR/Cf ΔAB USP or Cf ΔAB EcR/Cf ΔAB USP are co-expressed. […] Ligand dependent transactivation was observed only in the presence of the co-activator GRIP1. We also observed stronger ligand dependent activity for the Cf ΔA/B EcR+Cf ΔA/B USP+GRIP1 combination than the CfEcR+CfΔA/B USP+GRIP1 combination.
# Cf EcR + Cf ΔA/B USP = target: T2, Cf EcR + Cf ΔA/B USP (Choristoneura fumiferana, UniProt O77240); settings: RH 5992 10 μM, 4 hours, DMSO control 0.205
# T2 construct: human ubiquitin (76 aa) (N, cleaved yes); expressed in transfected cells; host or cells: yeast (Saccharomyces cerevisiae)
# Procedure: as §1, §2, §3
# [1] = target: T3, Cf EcR + Cf ΔA/B USP + GRIP1 (Choristoneura fumiferana, UniProt O77240)
# T3 construct: human ubiquitin (76 aa) (N, cleaved yes); expressed in transfected cells; host or cells: yeast (Saccharomyces cerevisiae); GRIP1 from pRS423-ADH1GRIP812
# Procedure: as §1, §2, §3
# Cf EcR + CfUSP = target: T4, Cf EcR + CfUSP (Choristoneura fumiferana, UniProt O77240); settings: RH 5992 10 μM, 4 hours, DMSO control 2.734
# T4 construct: human ubiquitin (76 aa) (N, cleaved yes); expressed in transfected cells; host or cells: yeast (Saccharomyces cerevisiae)
# Procedure: as §1, §2, §3
# Cf USP = target: T5, Cf USP (Choristoneura fumiferana, UniProt O76202); settings: RH 5992 10 μM, 4 hours, DMSO control 0.233
# T5 construct: human ubiquitin (76 aa) (N, cleaved yes); expressed in transfected cells; host or cells: yeast (Saccharomyces cerevisiae), plasmid pRS425CfUSP, CUP1 promoter
# Procedure: as §1, §2, §3
# Cf ΔA/B EcR + Cf USP = target: T6, Cf ΔA/B EcR + Cf USP (Choristoneura fumiferana, UniProt O77240); settings: RH 5992 10 μM, 4 hours, DMSO control 2.684
# T6 construct: human ubiquitin (76 aa) (N, cleaved yes); expressed in transfected cells; host or cells: yeast (Saccharomyces cerevisiae)
# Procedure: as §1, §2, §3
# [2] = target: T7, Cf ΔA/B EcR + Cf ΔA/B USP (Choristoneura fumiferana, UniProt O77240); settings: RH 5992 10 μM, 4 hours, DMSO control 0.209
# T7 construct: human ubiquitin (76 aa) (N, cleaved yes); expressed in transfected cells; host or cells: yeast (Saccharomyces cerevisiae)
# Procedure: as §1, §2, §3
# T3 sequence (O77240 1-513, stated change not applied): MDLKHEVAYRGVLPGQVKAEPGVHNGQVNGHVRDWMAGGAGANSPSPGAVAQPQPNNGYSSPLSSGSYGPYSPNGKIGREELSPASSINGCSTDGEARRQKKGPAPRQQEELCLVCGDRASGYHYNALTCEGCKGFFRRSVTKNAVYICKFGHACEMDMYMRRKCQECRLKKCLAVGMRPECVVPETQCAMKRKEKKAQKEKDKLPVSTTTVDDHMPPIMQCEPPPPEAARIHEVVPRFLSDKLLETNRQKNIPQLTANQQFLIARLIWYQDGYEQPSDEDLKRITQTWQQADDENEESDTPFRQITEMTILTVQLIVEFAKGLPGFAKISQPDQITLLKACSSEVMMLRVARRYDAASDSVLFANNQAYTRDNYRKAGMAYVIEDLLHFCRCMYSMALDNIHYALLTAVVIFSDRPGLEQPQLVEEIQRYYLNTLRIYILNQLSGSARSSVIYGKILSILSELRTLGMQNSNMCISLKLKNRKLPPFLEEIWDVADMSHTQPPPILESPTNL
# T3 sequence (O76202 with tags, fused parts or gaps partner): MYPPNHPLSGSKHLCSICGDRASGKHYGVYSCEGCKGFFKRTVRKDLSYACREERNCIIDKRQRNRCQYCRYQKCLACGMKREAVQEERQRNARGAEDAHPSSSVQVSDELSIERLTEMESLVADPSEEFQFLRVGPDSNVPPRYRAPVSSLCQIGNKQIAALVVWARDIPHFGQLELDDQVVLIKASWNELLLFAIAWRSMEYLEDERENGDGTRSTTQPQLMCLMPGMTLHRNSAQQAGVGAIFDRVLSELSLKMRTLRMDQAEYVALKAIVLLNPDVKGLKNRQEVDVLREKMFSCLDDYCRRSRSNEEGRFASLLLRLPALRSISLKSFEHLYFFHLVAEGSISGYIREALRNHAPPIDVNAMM
# T6 sequence (O77240 entry or part of it, stated change not applied): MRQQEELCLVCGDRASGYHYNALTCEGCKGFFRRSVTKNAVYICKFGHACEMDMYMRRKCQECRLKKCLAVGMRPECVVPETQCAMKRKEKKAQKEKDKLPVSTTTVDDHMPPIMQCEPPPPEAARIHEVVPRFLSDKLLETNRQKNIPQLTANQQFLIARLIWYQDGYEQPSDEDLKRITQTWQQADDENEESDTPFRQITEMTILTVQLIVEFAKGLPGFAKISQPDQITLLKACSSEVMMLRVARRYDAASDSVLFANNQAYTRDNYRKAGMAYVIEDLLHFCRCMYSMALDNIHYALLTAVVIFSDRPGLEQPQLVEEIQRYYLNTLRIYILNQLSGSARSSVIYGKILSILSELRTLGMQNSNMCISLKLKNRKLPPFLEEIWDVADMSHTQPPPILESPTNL
# T6 sequence (O76202 whole entry partner): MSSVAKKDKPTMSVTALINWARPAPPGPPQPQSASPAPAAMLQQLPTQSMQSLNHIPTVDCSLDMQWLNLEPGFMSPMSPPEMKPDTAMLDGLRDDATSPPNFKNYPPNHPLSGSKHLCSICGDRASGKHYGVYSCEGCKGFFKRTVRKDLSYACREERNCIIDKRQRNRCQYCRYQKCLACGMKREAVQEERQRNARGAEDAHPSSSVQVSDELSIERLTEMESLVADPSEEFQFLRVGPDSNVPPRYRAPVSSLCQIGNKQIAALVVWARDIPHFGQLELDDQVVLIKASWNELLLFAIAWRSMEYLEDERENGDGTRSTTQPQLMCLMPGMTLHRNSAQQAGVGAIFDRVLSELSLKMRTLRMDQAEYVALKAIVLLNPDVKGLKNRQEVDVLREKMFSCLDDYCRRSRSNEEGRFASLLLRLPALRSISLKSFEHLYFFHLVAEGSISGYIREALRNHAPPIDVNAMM
# T7 sequence (O77240 entry or part of it, stated change not applied): as the sequence (O77240 entry or part of it, stated change not applied) above
# T7 sequence (O76202 with tags, fused parts or gaps partner): as the sequence (O76202 with tags, fused parts or gaps partner) above
# T2 sequence (O77240 1-513, stated change not applied): as the sequence (O77240 1-513, stated change not applied) above
# T2 sequence (O76202 with tags, fused parts or gaps partner): as the sequence (O76202 with tags, fused parts or gaps partner) above
# T4 sequence (O77240 1-513): as the sequence (O77240 1-513, stated change not applied) above
# T4 sequence (O76202 whole entry partner): as the sequence (O76202 whole entry partner) above
# T1 sequence (O77240 1-513): as the sequence (O77240 1-513, stated change not applied) above
# T5 sequence (O76202 whole entry): as the sequence (O76202 whole entry partner) above
compound,measurement,setting,value
"CCc1ccc(C(=O)NN(C(=O)c2cc(C)cc(C)c2)C(C)(C)C)cc1 [RH 5992, tebufenozide]",β-galactosidase activity,Cf EcR,0.175
same,β-galactosidase activity,Cf EcR + Cf ΔA/B USP,0.241
same,β-galactosidase activity,"[1]; RH 5992 10 μM, 4 hours, yeast, Cf EcR + Cf ΔA/B USP + GRIP1, DMSO control 0.223",0.492
same,response of the complex to the ligand (in words),[1]; complex CfEcR:CfΔA/B USP:GRIP1,"responsive, but not very sensitive"
same,β-galactosidase activity,Cf EcR + CfUSP,3.000
same,β-galactosidase activity,Cf USP,0.230
same,β-galactosidase activity,Cf ΔA/B EcR + Cf USP,3.000
same,β-galactosidase activity,[2],0.234
